Laboratory results: US12043632B2, “6-heteroaryloxy benzimidazoles and azabenzimidazoles as JAK2 inhibitors” (Ajax Therapeutics, Inc., priority 2020, dated 2024)

Target: T1, JAK2 (JH1domain-catalytic, Y1007F,Y1008F) kinase (Homo sapiens, UniProt O60674, Y1007F/Y1008F)
T1 construct: JAK2 (JH1domain-catalytic, Y1007F,Y1008F) kinase was expressed as N-terminal fusion; made in house; host or cells: transiently transfected HEK293 cells
Assay: JAK2 JH1 Domain Binding Assay
Conditions: qPCR readout

T1 sequence (O60674 849-1124 Y1007F/Y1008F limits assumed): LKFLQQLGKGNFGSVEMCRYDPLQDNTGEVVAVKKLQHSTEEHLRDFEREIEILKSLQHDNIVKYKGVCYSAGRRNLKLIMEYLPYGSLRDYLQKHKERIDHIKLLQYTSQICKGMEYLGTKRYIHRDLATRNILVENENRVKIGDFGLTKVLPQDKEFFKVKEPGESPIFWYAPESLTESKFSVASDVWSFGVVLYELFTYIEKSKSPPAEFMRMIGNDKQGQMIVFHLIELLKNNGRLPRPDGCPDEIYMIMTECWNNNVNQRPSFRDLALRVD

Compound | Kd [nM]
Cn1cc(C(F)(F)F)cc(Nc2nc3ncc(Oc4cnc5[nH]cc(C#N)c5c4)c(C#N)c3n2C)c1=O [Example I-300, 6-((3-cyano-1H-pyrrolo[2,3-b]pyridin-5-yl)oxy)-1-methyl-2-((1-methyl-2-oxo-5-(trifluoromethyl)-1,2-dihydropyridin-3-yl)amino)-1H-imidazo[4,5-b]pyridine-7-carbonitrile] | 50 to 1000
CNc1ccc2c(Oc3cnc4nc(Nc5cc(C(F)(F)F)cn(C)c5=O)n(C)c4c3C#N)cnn2c1 [Example I-302, 1-methyl-2-((1-methyl-2-oxo-5-(trifluoromethyl)-1,2-dihydropyridin-3-yl)amino)-6-((6-(methylamino)pyrazolo[1,5-a]pyridin-3-yl)oxy)-1H-imidazo[4,5-b]pyridine-7-carbonitrile] | 10 to 50
CNc1cn2ncc(Oc3cnc4nc(Nc5cc(CN6CC[C@H](OC)C6)cc(C(F)(F)F)c5)n(C)c4c3Cl)c2cn1 [Example I-307, (S)-7-chloro-N-(3-((3-methoxypyrrolidin-1-yl)methyl)-5-(trifluoromethyl)phenyl)-1-methyl-6-((6-(methylamino)pyrazolo[1,5-a]pyrazin-3-yl)oxy)-1H-imidazo[4,5-b]pyridin-2-amine] | 50 to 1000
CNc1cn2ncc(Oc3cnc4nc(Nc5cc(CN6CC[C@@H](OC)C6)cc(C(F)(F)F)c5)n(C)c4c3Cl)c2cn1 [Example I-308, (R)-7-chloro-N-(3-((3-methoxypyrrolidin-1-yl)methyl)-5-(trifluoromethyl)phenyl)-1-methyl-6-((6-(methylamino)pyrazolo[1,5-a]pyrazin-3-yl)oxy)-1H-imidazo[4,5-b]pyridin-2-amine] | 10 to 50
CNc1cn2ncc(Oc3cnc4nc(Nc5nn6c(c5F)COC(C)(C)C6)n(C)c4c3Cl)c2cn1 [Example I-309, N-(7-chloro-1-methyl-6-((6-(methylamino)pyrazolo[1,5-a]pyrazin-3-yl)oxy)-1H-imidazo[4,5-b]pyridin-2-yl)-3-fluoro-6,6-dimethyl-6,7-dihydro-4H-pyrazolo[5,1-c][1,4]oxazin-2-amine] | < 10

Results, then the compound that gave them:

Kd [nM] | Compound
< 10 | Cn1c(Nc2ccc(CN3CCCOCC3)c(C(F)(F)F)c2)nc2ncc(Oc3cnn4ccncc34)c(Cl)c21 [Example I-298, N-(4-((1,4-oxazepan-4-yl)methyl)-3-(trifluoromethyl)phenyl)-7-chloro-1-methyl-6-(pyrazolo[1,5-a]pyrazin-3-yloxy)-1H-imidazo[4,5-b]pyridin-2-amine]
< 10 | COc1n[nH]c2ncc(Oc3cnc4nc(Nc5cc(C(F)(F)F)cn(C)c5=O)n(C)c4c3C#N)cc12 [Example I-299, 6-((3-methoxy-1H-pyrazolo[3,4-b]pyridin-5-yl)oxy)-1-methyl-2-((1-methyl-2-oxo-5-(trifluoromethyl)-1,2-dihydropyridin-3-yl)amino)-1H-imidazo[4,5-b]pyridine-7-carbonitrile]
< 10 | CCN1CCCN(Cc2ccc(Nc3nc4ncc(Oc5cnn6ccncc56)c(Cl)c4n3C)cc2C(F)(F)F)CC1 [Example I-301, 7-chloro-N-(4-((4-ethyl-1,4-diazepan-1-yl)methyl)-3-(trifluoromethyl)phenyl)-1-methyl-6-(pyrazolo[1,5-a]pyrazin-3-yloxy)-1H-imidazo[4,5-b]pyridin-2-amine]
< 10 | CNc1ccc2c(Oc3cnc4nc(Nc5cc(C(F)(F)F)cn(C)c5=O)n(C)c4c3Cl)cnn2c1 [Example I-303, 3-((7-chloro-1-methyl-6-((6-(methylamino)pyrazolo[1,5-a]pyridin-3-yl)oxy)-1H-imidazo[4,5-b]pyridin-2-yl)amino)-1-methyl-5-(trifluoromethyl)pyridin-2(1H)-one]
< 10 | CNc1cn2ncc(Oc3cnc4nc(Nc5cc(C(F)(F)F)cn(C)c5=O)n(C)c4c3Cl)c2cn1 [Example I-304, 3-((7-chloro-1-methyl-6-((6-(methylamino)pyrazolo[1,5-a]pyrazin-3-yl)oxy)-1H-imidazo[4,5-b]pyridin-2-yl)amino)-1-methyl-5-(trifluoromethyl)pyridin-2(1H)-one]
